Molecules are shown by their SMILES. A value given as a limit tells only on which side of the number the result lay.

Series [1] has as its system savory taste, human panelists. Nature of the series: Umami/savory flavor experiments using human panelists (trained panel, difference from reference). The note with it: 12 mM MSG + cpd vs reference 12 mM MSG + 100 μM IMP. The series is classed as in vivo. As for the experimental part:
General Panelist Selection: Basic screening of sensory taste testers: Potential panelists were tested for their abilities to rank and rate intensities of solutions representing the five basic tastes. Panelists ranked and rated intensity of five different concentrations of each of the five following compounds: sucrose (sweet), sodium chloride (salty), citric acid (sour), caffeine (bitter), and monosodium glutamate (savory). In order to be selected for participation in testing, panelists needed to correctly rank and rate samples for intensity, with a reasonable number of errors
Preliminary Taste Tests: The panelists selected in the above procedure were deemed qualified for performing Preliminary Taste Testing procedures. The preliminary taste tests are used to evaluate new compounds for intensity of basic tastes and off-tastes. A small group of panelists (n=5) taste approximately 5 concentrations of the compound (range typically between 1-100 μM, in half-log cycles, e.g., 1, 3, 10, 30, and 100 μM) in water and in a solution of 12 mM MSG to evaluate enhancement. Panelists rate the five basic tastes (sweet, salty, sour, bitter, and savory) as well as off-tastes (such as chemical, metallic, sulfur) on a labeled magnitude scale. Samples are served in 10 mL portions at room temperature. The purpose of the test is to determine the highest concentration at which there is no objectionable off-taste, and determine if obvious savory taste or enhancement of savory taste exists at any of the concentrations tested.
Trained Panelist Selection: A trained expert panel was used to further evaluate compounds that had been tested with the preliminary taste test.
Panelists for the trained panel were selected from the larger group of qualifying taste panelists. Panelists were further trained on savory taste by ranking and rating experiments using MSG and IMP combinations. Panelists completed a series of ranking, rating, and difference from reference tests with savory solutions. In ranking and rating experiments, panelists evaluated easy MSG concentrations (0, 6, 18, 36 mM) and more difficult MSG concentrations (3, 6, 12, 18 mM MSG) in water.
Compound testing with Trained Panel: Compounds tested by the trained panel were evaluated in difference from reference experiments. […] Test samples were solutions with varying amounts of MSG, IMP, and the compound.
Compounds were tested against the reference in samples with and without 12 mM MSG. All samples were presented in 10 ml volumes at room temperature. Two sessions were completed for each compound tested to evaluate panel reproducibility.

A further series deals with HEK293-Gα15 cells. Nature of the series: FLIPR assay on HEK293-Gα15 cells not expressing the human sweet receptor (receptor dependency control). The series is classed as cell-based. The text has this: In order to determine the dependency of hT1R2/hT1R3 for the cell response to different stimuli, selected compounds were subjected to a similar analysis on HEK293-Gα15 cells (not expressing the human sweet receptor).

Series [2] relates to sweet taste, human panelists. As to the kind of experiment: Sweet flavor and sweet flavor enhancement measurement using human panelists. The series is classed as in vivo. As for the experimental part:
Overview: Various concentrations of the experimental compound (normally aqueous solutions containing 1, 3, 10, and 30 uM concentrations of the experimental compound; and optionally 50 uM and/or 100 uM concentrations) are individually tasted by trained human subjects and rated for intensity of several taste attributes. The experimental compound may also be tasted when dissolved in a “key tastant” solution.
Procedure: An appropriate quantity of the experimental compound is dissolved in water typically also containing 0.1% ethanol, which is utilized to aid initial dispersion of the compound in the aqeuous stock solution. When appropriate, the experimental compound may also be dissolved in aqueous solutions of a “key tastant” (for example, 4% sucrose, 6% sucrose, 6% fructose/glucose, or 7% fructose/glucose, at pH 7.1 or 2.8).
Five human Subjects are used for preliminary taste tests. […] Subjects refrain from eating or drinking (except water) for at least 1 hour prior to the test. Subjects eat a cracker and rinse with water four times to clean the mouth before taste tests.
The aqueous solutions are dispensed in 10 ml volumes into 1 oz. sample cups and served to the Subjects at room temperature. Samples of the experimental compound dissolved in an appropriate key tastant (e.g., 4% sucrose, 6% fructose, or 6% fructose/glucose, typically at pH 7.1) at various concentrations of the experimental compound may also be served to the Subjects. Subjects also receive a reference sample of the key tastant (e.g., sucrose, fructose, or fructose/glucose, typically at pH 7.1) at different concentrations for comparison.
Subjects taste the solutions, starting with the lowest concentration, and rate intensity of the following attributes on the Labeled Magnitude Scale (LMS) for sweetness, saltiness, sourness, bitterness, savory (umami), and other (off-taste). Subjects rinse three times with water between tastings. If a particular concentration elicits an undesirable characteristic or off-taste, subsequent tastings of higher concentrations are eliminated. After a break, Subjects taste a solution of the key tastant (e.g., 4% sucrose, 6% fructose, or 6% fructose/glucose, typically at pH 7.1) without the experimental compound. Then solutions of the key tastant plus experimental compound are tasted in increasing order of concentration. The key tastant solution can be retasted for comparison with key tastant+experimental compound solutions if necessary. Discussion among panelists is permitted.
Subjects rate the difference in intensity of the test sample compared to the reference sample for the key attribute on a scale of −5 (much less sweet than the reference) to +5 (much more sweet than the reference). A score of 0 indicates the test sample is equally as sweet as the reference. […]

In the next series the test system is un-induced I-17 cells. As to the kind of experiment: FLIPR assay on un-induced I-17 cells (receptor dependency control). The series is classed as cell-based. The note with it: I-17 cells not induced with mifepristone; compounds presented at 10 μM. As to the method: In order to determine the dependency of hT1R1/hT1R3 for the cell response to different stimuli, selected compounds were subjected to a similar analysis on I-17 cells that had not been induced for receptor expression with mifepristone (designated as un-induced I-17 cells). […] Compounds were presented to un-induced umami cells at […]—or three times the maximum stimulation used in the dose-response analysis.

For orientation: melting point means the temperature of the solid-liquid transition. `COc1cc(C)ccc1CNC(=O)C(=O)NCCc1ccc(C)cn1` [Example 157, N^1-(2-methoxy-4-methylbenzyl)-N^2-(2-(5-methylpyridin-2-yl)ethyl)oxalamide] registered a melting point of 116 to 117 °C. For the same compound, the “Taste Data: concentration of cpd with 12 mM MSG that is as strong as 12 mM MSG + 100 μM IMP” value in series [1] was 12 mM MSG + 0.3 μM cpd as strong as.
With `O=C(CO)[C@@H](O)[C@H](O)[C@H](O)CO` [D-Fructose], in the series with HEK293-Gα15 cells, the “functional response in the FLIPR assay using HEK293-Gα15 cells” value is “do not show any functional response”.
For the compound `Cc1c(F)c(F)c(C(=O)NC2CCCCC2C)c(F)c1F` (centres unmarked) [Example 162, 2,3,5,6-tetrafluoro-4-methyl-N-(2-methylcyclohexyl)benzamide], the “Perceived Equivalent Sweet Solution” value in series [2] (10 uM compound + 6% fructose/glucose, pH 7.1) was no less than 8% fructose/glucose; in series [2] (10 uM compound + 7% fructose/glucose, pH 2.8), no less than 9% fructose/glucose.
Regarding `N[C@@H](CCC(=O)O)C(=O)[O-].[Na+]` [monosodium glutamate], the “functional response in the FLIPR assay using un-induced umami cells” value in the series with un-induced I-17 cells is “do not show any functional response”.
For the compound `Cc1cccc(C)c1C(=O)NC1CCCCC1C` (centres unmarked) [Example 168, 2,6-dimethyl-N-(2-methylcyclohexyl)benzamide], the “Perceived Equivalent Sweet Solution” value in series [2] (30 uM compound + 6% fructose/glucose, pH 7.1) is recorded as “Equal to 8% fructose/ % fructose/glucose”.
For `O=C(Nc1ccc2c(c1)OCO2)N1Cc2ccccc2C1` [Example 174, N-(3,4-methylenedioxyphenyl)isoindoline-2-carboxamide], the “Perceived Equivalent Sweet Solution” value in series [2] (50 uM compound + 4% sucrose, pH not measured or controlled) came to 6% sucrose.
